Results from the NIST ThermoML archive (doi:10.1016/j.jct.2018.04.015).

Assay: mn = molality of the nth substance listed, in mol/kg
Conditions: 100 kPa, Liquid; for viscosity: Capillary tube (Ostwald / Ubbelohde) method; for mass density: Vibrating tube method

C[N+](C)(C)CCO.[Cl-] [choline chloride] + O
Conditions | mass density, 293.15 K [kg/m3] | mass density, 298.15 K [kg/m3] | mass density, 303.15 K [kg/m3] | mass density, 308.15 K [kg/m3] | mass density, 313.15 K [kg/m3] | viscosity, 293.15 K [mPa·s] | viscosity, 298.15 K [mPa·s] | viscosity, 303.15 K [mPa·s] | viscosity, 308.15 K [mPa·s] | viscosity, 313.15 K [mPa·s]
m1 = 0.08502 | 999.63 | 998.44 | 997.02 | 995.39 | 993.55 | – | – | – | – | –
m1 = 0.09081 | – | – | – | – | – | 1.034 | 0.916 | 0.819 | 0.737 | 0.668
m1 = 0.1494 | – | – | – | – | – | 1.049 | 0.929 | 0.831 | 0.748 | 0.678
m1 = 0.15 | 1000.68 | 999.47 | 998.03 | 996.38 | 994.52 | – | – | – | – | –
m1 = 0.2002 | 1001.48 | 1000.25 | 998.79 | 997.13 | 995.25 | – | – | – | – | –
m1 = 0.2056 | – | – | – | – | – | 1.062 | 0.941 | 0.841 | 0.757 | 0.686
m1 = 0.2501 | 1002.25 | 1001 | 999.53 | 997.85 | 995.96 | – | – | – | – | –
m1 = 0.2998 | – | – | – | – | – | 1.082 | 0.959 | 0.858 | 0.772 | 0.7
m1 = 0.3003 | 1003.03 | 1001.75 | 1000.27 | 998.57 | 996.66 | – | – | – | – | –
m1 = 0.3503 | 1003.78 | 1002.49 | 1000.99 | 999.27 | 997.34 | – | – | – | – | –
m1 = 0.3511 | – | – | – | – | – | 1.093 | 0.968 | 0.867 | 0.78 | 0.708
m1 = 0.3997 | 1004.52 | 1003.22 | 1001.7 | 999.95 | 998 | – | – | – | – | –
m1 = 0.4226 | – | – | – | – | – | 1.107 | 0.981 | 0.878 | 0.791 | 0.718
m1 = 0.4502 | 1005.27 | 1003.94 | 1002.41 | 1000.64 | 998.67 | – | – | – | – | –
m1 = 0.489 | – | – | – | – | – | 1.119 | 0.993 | 0.889 | 0.801 | 0.728
m1 = 0.499 | 1005.99 | 1004.64 | 1003.08 | 1001.3 | 999.3 | – | – | – | – | –
